Source: ChEMBL document CHEMBL5338788, “Discovery of a New-Generation S-Adenosylmethionine-Noncompetitive Covalent Inhibitor Targeting the Lysine Methyltransferase Enhancer of Zeste Homologue 2” (J Med Chem, 2023)
Active and inactive are the calls of the source. The rule behind the calls is not given here.

Columns and labels:
[1] = system: Pfeiffer; assay: Antiproliferative activity against human Pfeiffer cells expressing EZH2 […] mutant assessed as inhibition of cell proliferation incubated for 6 days by CCK8 assay; type: functional, cell-based; conditions: 144 h
[2] = target: T1, Protein arginine N-methyltransferase 1 (Homo sapiens, UniProt Q99873); assay: Inhibition of PRMT1 (unknown origin) using histone peptide/SAM as substrate at 10 uM by AlphaLisa assay
[3] = Antiproliferative activity against human WILL-1 cells expressing wild-type EZH2 assessed as inhibition of cell proliferation incubated for 6 days by CCK8 assay; type: functional, cell-based; conditions: WILL-1, 144 h
[4] = system: Pfeiffer; assay: Downregulation of H2K27me3 level in human Pfeiffer cells incubated for 48 to 96 hrs by Western blot analysis; type: functional, cell-based; conditions: dose 0.05-1 µM, time 48-96 hrs
[5] = AUC (0 to last) in Sprague-Dawley rat at 10 mg/kg, po measured for 0.25 to 24 hrs by LC-MS/MS analysis; type: ADME, organism-based; design: dose 10 mg/kg, time upper 24 hrs, time lower 0.25 hrs, route po; conditions: in vivo
[6] = target: Histone-lysine N-methyltransferase NSD2 (Homo sapiens, UniProt O96028); assay: Inhibition of NSD2 (unknown origin) using histone peptide/SAM as substrate by AlphaLisa assay
[7] = Half life in Sprague-Dawley rat at 3 mg/kg, iv measured for 0.25 to 24 hrs by LC-MS/MS analysis; type: ADME, organism-based; conditions: in vivo, time 0.25-24 hrs
[8] = system: Pfeiffer; assay: Downregulation of H2K27me3 level in human Pfeiffer cells at 0.05 to 1 uM by Western blot analysis; type: functional, cell-based; conditions: dose 0.05-1 µM, time 48-96 hrs, TDE = time-dependent effect
[9] = system: WSUDLCL2; assay: Antiproliferative activity against human WSUDLCL2 cells expressing wild-type EZH2 assessed as inhibition of cell proliferation incubated for 6 days by CCK8 assay; type: functional, cell-based; conditions: WSUDLCL2, 144 h
[10] = target: Histone-lysine N-methyltransferase EHMT1 (Homo sapiens) (UniProt Q9H9B1); assay: Inhibition of GLP (unknown origin) using histone peptide/SAM as substrate at 10 uM by AlphaLisa assay
[11] = target: Histone-arginine methyltransferase CARM1 (Homo sapiens) (UniProt Q86X55); assay: Inhibition of PRMT4 (unknown origin) using histone peptide/SAM as substrate at 10 uM by AlphaLisa assay
[12] = system: U2932; assay: Antiproliferative activity against human U2932 cells expressing wild-type EZH2 assessed as inhibition of cell proliferation incubated for 6 days by CCK8 assay; type: functional, cell-based; conditions: U2932, 144 h
[13] = target: Histone-lysine N-methyltransferase EHMT1 (Homo sapiens, UniProt Q9H9B1); assay: Inhibition of GLP (unknown origin) using histone peptide/SAM as substrate by AlphaLisa assay
[14] = AUC (0 to last) in Sprague-Dawley rat at 3 mg/kg, iv measured for 0.25 to 24 hrs by LC-MS/MS analysis; type: ADME, organism-based; design: time 0.25-24 hrs, dose 3 mg/kg, route iv; conditions: in vivo
[15] = system: Pfeiffer; assay: Effect on total H3 level in human Pfeiffer cells at 0.05 to 1 uM incubated for 48 to 96 hrs by Western blot analysis; type: functional, cell-based; conditions: dose 0.05-1 µM, time 48-96 hrs
[16] = target: T2, Histone-lysine N-methyltransferase, H3 lysine-36 specific (Homo sapiens, UniProt Q96L73); assay: Inhibition of NSD1 (unknown origin) using histone peptide/SAM as substrate at 10 uM by AlphaLisa assay
[17] = system: Karpas-1106P; assay: Antiproliferative activity against human KARPAS-1106P cells expressing wild-type EZH2 assessed as inhibition of cell proliferation incubated for 6 days by CCK8 assay; type: functional, cell-based; conditions: time 6.0 day
[18] = target: T3, Histone-lysine N-methyltransferase 2B (Homo sapiens, UniProt Q9UMN6); assay: Inhibition of MLL4 (unknown origin) using histone peptide/SAM as substrate at 10 uM by HTRF assay
[19] = system: DB; assay: Antiproliferative activity against human DB cells expressing wild-type EZH2 assessed as inhibition of cell proliferation incubated for 6 days by CCK8 assay; type: functional, cell-based; conditions: 144 h
[20] = system: SU-DHL10; assay: Antiproliferative activity against human SU-DHL-10 cells expressing EZH2 mutant assessed as inhibition of cell proliferation incubated for 6 days by CCK8 assay; type: functional, cell-based; conditions: time 6.0 day
[21] = Metabolic stability in human liver microsomes assessed as half life preincubated for 10 mins followed by NADPH addition measured upto 60 mins by LC-MS/MS analysis; type: ADME, Microsome; conditions: time < 70 min
[22] = target: T2, Histone-lysine N-methyltransferase, H3 lysine-36 specific; assay: Inhibition of NSD1 (unknown origin) using histone peptide/SAM as substrate by AlphaLisa assay
[23] = target: Histone-lysine N-methyltransferase NSD2 (Homo sapiens) (UniProt O96028); assay: Inhibition of NSD2 (unknown origin) using histone peptide/SAM as substrate at 10 uM by AlphaLisa assay
[24] = target: T3, Histone-lysine N-methyltransferase 2B; assay: Inhibition of MLL4 (unknown origin) using histone peptide/SAM as substrate by HTRF assay
[25] = system: KARPAS-422; assay: Antiproliferative activity against human KARPAS-422 cells expressing EZH2 Y641N mutant assessed as inhibition of cell proliferation incubated for 6 days by CCK8 assay; type: functional, cell-based; conditions: KARPAS-422, 144 h
[26] = target: Histone-arginine methyltransferase CARM1 (Homo sapiens, UniProt Q86X55); assay: Inhibition of PRMT4 (unknown origin) using histone peptide/SAM as substrate by AlphaLisa assay
[27] = target: T4, Histone-lysine N-methyltransferase 2A (Homo sapiens, UniProt Q03164); assay: Inhibition of MLL1 (unknown origin) using histone peptide/SAM as substrate by HTRF assay
[28] = system: KARPAS-422; assay: Downregulation of H2K27me3 level in human KARPAS-422 cells at 0.05 to 1 uM by Western blot analysis; type: functional, cell-based; conditions: dose 0.05-1 µM, time 48-96 hrs, TDE = time-dependent effect
[29] = system: Pfeiffer; assay: Downregulation of H3K27me3 level in human Pfeiffer cells at 1 uM incubated for 96 hrs followed by compound washout measured after 120 hrs by Western blot analysis; type: functional, cell-based; conditions: time 216.0 hrs
[30] = target: Histone-lysine N-methyltransferase EHMT2 (Homo sapiens) (UniProt Q96KQ7); assay: Inhibition of G9a (unknown origin) using histone peptide/SAM as substrate at 10 uM by AlphaLisa assay
[31] = system: KARPAS-422; assay: Antiproliferative activity against human KARPAS-422 cells expressing EZH2 mutant assessed as inhibition of cell proliferation incubated for 6 days by CCK8 assay; type: functional, cell-based; conditions: time 6.0 day
[32] = target: T5, Protein arginine N-methyltransferase 5 (Homo sapiens, UniProt O14744); assay: Inhibition of PRMT5 (unknown origin) using histone peptide/SAM as substrate by AlphaLisa assay
[33] = system: KARPAS-422; assay: Downregulation of H2K27me3 level in human KARPAS-422 cells incubated for 48 to 96 hrs by Western blot analysis; type: functional, cell-based; conditions: dose 0.05-1 µM, time 48-96 hrs
[34] = target: T6, DNA (cytosine-5)-methyltransferase 1 (Homo sapiens, UniProt P26358); assay: Inhibition of DNMT1 (unknown origin) using histone peptide/SAM as substrate by AlphaLisa assay
[35] = system: RL; assay: Antiproliferative activity against human RL cells expressing EZH2 mutant assessed as inhibition of cell proliferation incubated for 6 days by CCK8 assay; type: functional, cell-based; conditions: time 6.0 day
[36] = system: Pfeiffer; assay: Antiproliferative activity against human Pfeiffer cells expressing EZH2 mutant assessed as inhibition of cell proliferation incubated for 6 days by CCK8 assay; type: functional, cell-based; conditions: time 6.0 day
[37] = system: HT; assay: Antiproliferative activity against human HT cells expressing wild-type EZH2 assessed as inhibition of cell proliferation incubated for 6 days by CCK8 assay; type: functional, cell-based; conditions: time 6.0 day
[38] = target: T5, Protein arginine N-methyltransferase 5; assay: Inhibition of PRMT5 (unknown origin) using histone peptide/SAM as substrate at 10 uM by AlphaLisa assay
[39] = target: T1, Protein arginine N-methyltransferase 1; assay: Inhibition of PRMT1 (unknown origin) using histone peptide/SAM as substrate by AlphaLisa assay
[40] = target: T6, DNA (cytosine-5)-methyltransferase 1; assay: Inhibition of DNMT1 (unknown origin) using histone peptide/SAM as substrate at 10 uM by AlphaLisa assay
[41] = Bioavailability in Sprague-Dawley rat at 10 mg/kg, po measured for 0.25 to 24 hrs by LC-MS/MS analysis; type: ADME, organism-based; conditions: in vivo, time 0.25-24 hrs
[42] = target: T4, Histone-lysine N-methyltransferase 2A; assay: Inhibition of MLL1 (unknown origin) using histone peptide/SAM as substrate at 10 uM by HTRF assay
[43] = Cmax in Sprague-Dawley rat at 10 mg/kg, po measured for 0.25 to 24 hrs by LC-MS/MS analysis; type: ADME, organism-based; design: time lower 0.25 hrs, dose 10 mg/kg, time upper 24 hrs, route po; conditions: in vivo
[44] = system: OPM-2; assay: Antiproliferative activity against human OPM-2 cells expressing wild-type EZH2 assessed as inhibition of cell proliferation incubated for 6 days by CCK8 assay; type: functional, cell-based; conditions: OPM-2, 144 h
[45] = system: Pfeiffer; assay: Effect on EZH2 level in human Pfeiffer cells at 0.05 to 1 uM incubated for 48 to 96 hrs by Western blot analysis; type: functional, cell-based; conditions: dose 0.05-1 µM, time 48-96 hrs
[46] = target: Histone-lysine N-methyltransferase EHMT2 (Homo sapiens, UniProt Q96KQ7); assay: Inhibition of G9a (unknown origin) using histone peptide/SAM as substrate by AlphaLisa assay
[47] = Apparent permeability in human Caco-2 cells at 20 uM measured for 35 to 95 mins by LC-MS/MS analysis; type: ADME, cell-based; conditions: time 35-95 min
[48] = system: SU-DHL-2; assay: Antiproliferative activity against human SUDHL2 cells expressing EZH2 mutant assessed as inhibition of cell proliferation incubated for 6 days by CCK8 assay; type: functional, cell-based; conditions: SU-DHL-2, 144 h

T6 sequence (P26358 whole entry): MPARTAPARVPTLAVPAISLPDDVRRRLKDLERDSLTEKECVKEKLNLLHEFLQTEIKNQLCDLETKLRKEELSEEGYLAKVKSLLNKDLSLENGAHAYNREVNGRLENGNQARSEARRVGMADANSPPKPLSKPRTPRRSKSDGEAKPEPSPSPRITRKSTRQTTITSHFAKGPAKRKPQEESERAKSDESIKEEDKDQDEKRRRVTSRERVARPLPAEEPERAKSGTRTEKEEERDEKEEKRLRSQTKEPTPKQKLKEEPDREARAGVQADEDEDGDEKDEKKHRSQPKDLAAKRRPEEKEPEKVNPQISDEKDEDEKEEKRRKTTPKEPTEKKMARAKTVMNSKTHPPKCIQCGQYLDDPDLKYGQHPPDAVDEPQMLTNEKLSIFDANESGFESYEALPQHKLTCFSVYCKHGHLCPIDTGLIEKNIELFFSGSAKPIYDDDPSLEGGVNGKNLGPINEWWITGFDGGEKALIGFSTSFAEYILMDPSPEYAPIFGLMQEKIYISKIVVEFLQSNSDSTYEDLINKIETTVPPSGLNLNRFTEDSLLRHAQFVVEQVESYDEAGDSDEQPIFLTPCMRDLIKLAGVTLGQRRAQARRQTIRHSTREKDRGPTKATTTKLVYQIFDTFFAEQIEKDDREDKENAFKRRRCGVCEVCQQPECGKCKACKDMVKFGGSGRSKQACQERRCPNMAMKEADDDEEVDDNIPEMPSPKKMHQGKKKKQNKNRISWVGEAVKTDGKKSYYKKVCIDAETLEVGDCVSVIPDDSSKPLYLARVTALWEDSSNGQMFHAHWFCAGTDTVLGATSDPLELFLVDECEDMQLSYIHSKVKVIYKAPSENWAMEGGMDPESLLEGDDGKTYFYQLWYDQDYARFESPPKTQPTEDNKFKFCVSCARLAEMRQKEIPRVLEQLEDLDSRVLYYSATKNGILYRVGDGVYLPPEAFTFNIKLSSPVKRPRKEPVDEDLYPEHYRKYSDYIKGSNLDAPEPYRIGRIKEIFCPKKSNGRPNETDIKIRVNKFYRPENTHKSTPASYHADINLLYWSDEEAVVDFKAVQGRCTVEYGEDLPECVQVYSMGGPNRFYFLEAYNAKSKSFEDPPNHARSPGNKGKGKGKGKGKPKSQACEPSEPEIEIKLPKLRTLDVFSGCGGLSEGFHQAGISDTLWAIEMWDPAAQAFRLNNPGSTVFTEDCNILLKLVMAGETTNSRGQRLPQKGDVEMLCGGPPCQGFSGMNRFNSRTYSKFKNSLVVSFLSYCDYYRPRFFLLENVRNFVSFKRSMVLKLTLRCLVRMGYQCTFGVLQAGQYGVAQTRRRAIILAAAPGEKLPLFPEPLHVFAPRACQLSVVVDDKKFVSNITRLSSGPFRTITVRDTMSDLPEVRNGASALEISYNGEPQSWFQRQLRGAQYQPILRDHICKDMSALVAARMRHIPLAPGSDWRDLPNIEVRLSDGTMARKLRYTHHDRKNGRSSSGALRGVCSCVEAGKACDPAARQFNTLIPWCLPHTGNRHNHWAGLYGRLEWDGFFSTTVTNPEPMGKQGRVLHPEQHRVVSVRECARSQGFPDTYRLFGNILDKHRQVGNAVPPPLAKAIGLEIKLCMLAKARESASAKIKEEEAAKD
T5 sequence (O14744 whole entry): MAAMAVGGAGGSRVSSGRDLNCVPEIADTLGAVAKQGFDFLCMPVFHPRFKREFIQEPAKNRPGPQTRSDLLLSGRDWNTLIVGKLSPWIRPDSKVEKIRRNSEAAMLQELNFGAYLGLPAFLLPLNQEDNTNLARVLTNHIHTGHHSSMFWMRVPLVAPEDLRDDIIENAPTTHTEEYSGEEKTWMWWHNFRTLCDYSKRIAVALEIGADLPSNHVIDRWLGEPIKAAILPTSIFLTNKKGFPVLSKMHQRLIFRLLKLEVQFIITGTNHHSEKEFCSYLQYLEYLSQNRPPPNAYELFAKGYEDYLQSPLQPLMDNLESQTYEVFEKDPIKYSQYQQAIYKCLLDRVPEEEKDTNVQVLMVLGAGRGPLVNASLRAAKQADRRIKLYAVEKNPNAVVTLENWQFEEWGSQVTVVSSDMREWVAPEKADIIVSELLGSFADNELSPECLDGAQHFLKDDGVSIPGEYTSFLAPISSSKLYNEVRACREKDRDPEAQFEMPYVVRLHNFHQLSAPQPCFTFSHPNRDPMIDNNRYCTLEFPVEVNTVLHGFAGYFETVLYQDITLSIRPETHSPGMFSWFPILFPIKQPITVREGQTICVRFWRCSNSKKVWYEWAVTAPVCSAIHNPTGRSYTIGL
T2 sequence (Q96L73 whole entry): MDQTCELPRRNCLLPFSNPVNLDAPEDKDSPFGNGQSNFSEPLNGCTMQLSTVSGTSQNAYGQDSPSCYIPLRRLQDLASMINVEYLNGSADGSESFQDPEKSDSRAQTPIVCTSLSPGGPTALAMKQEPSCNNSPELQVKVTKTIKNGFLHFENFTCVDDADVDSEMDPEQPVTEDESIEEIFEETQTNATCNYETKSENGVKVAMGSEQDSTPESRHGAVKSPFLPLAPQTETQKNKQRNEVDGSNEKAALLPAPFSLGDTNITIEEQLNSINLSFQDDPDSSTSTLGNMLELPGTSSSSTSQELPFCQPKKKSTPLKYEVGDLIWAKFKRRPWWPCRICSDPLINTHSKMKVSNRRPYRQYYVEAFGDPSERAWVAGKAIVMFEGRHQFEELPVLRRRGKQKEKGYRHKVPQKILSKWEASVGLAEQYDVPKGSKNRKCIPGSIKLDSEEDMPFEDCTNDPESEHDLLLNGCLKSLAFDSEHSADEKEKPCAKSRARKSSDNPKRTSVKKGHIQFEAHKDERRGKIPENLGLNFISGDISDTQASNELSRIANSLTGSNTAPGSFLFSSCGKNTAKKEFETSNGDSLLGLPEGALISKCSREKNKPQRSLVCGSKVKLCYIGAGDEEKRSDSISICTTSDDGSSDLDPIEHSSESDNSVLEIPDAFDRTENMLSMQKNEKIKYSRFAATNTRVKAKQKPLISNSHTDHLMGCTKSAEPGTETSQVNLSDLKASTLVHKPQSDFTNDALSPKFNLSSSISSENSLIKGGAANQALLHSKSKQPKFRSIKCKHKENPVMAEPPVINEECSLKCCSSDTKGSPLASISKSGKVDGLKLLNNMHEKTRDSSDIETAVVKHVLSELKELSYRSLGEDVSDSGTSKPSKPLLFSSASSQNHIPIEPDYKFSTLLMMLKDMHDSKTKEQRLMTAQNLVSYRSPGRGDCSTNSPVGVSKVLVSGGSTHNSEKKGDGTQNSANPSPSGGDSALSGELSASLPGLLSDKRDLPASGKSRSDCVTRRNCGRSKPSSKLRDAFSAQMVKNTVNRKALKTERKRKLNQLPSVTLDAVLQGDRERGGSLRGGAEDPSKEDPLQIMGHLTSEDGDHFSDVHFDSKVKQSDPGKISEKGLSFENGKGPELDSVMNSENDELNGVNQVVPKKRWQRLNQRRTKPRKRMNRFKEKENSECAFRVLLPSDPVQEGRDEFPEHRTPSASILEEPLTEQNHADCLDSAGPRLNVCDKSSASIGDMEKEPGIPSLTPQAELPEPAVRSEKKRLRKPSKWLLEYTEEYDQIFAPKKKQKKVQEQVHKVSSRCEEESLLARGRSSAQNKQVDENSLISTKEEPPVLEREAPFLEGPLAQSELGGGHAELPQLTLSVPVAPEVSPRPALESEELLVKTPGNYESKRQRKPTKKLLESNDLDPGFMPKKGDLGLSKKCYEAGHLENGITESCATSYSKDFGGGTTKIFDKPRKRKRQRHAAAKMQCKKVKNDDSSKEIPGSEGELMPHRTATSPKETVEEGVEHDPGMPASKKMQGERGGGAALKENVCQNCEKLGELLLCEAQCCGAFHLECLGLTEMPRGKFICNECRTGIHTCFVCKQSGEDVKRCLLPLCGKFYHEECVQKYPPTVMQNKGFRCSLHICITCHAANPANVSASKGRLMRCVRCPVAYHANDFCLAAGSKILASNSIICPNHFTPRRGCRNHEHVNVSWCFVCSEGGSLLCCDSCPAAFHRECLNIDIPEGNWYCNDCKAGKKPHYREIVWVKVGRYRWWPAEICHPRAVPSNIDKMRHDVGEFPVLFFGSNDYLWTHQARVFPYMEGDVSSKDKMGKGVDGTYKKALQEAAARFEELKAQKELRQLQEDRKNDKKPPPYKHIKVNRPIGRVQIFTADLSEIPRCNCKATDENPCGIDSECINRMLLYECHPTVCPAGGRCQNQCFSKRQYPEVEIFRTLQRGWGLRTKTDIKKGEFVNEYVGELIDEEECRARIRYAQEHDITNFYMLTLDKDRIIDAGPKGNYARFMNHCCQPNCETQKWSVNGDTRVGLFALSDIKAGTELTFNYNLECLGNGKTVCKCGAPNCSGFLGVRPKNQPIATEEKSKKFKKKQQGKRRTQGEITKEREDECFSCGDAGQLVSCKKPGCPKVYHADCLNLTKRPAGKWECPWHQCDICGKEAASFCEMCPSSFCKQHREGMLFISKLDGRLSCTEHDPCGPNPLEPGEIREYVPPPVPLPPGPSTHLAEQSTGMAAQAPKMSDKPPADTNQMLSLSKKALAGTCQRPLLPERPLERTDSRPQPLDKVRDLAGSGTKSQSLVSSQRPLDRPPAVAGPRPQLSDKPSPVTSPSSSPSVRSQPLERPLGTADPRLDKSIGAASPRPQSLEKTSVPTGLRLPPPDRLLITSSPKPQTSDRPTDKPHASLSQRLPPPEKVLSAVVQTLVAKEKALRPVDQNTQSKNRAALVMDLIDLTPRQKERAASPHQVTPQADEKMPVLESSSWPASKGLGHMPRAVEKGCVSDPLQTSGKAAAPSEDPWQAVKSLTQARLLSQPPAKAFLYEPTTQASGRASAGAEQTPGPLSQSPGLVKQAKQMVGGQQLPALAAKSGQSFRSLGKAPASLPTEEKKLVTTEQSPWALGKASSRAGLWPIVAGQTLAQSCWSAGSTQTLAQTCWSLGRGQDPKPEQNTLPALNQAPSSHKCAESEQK

inhibition [2]: inactive | AUC(0-t) [5]: 8.16 ng·h/mL | IC50 [6]: > 10 µM | t1/2 [7]: 16.8 min | inhibition [10]: inactive | inhibition [11]: inactive | IC50 [13]: > 10 µM | AUC(0-t) [14]: 4890 ng·h/mL | inhibition [16]: inactive | inhibition [18]: inactive | half-life [21]: 33.8 min | IC50 [22]: > 10 µM | inhibition [23]: inactive | IC50 [24]: > 10 µM | IC50 [25]: 0.064 µM | IC50 [26]: > 10 µM | IC50 [27]: > 10 µM | inhibition [30]: inactive | IC50 [32]: > 10 µM | IC50 [34]: > 10 µM | inhibition [38]: inactive | IC50 [39]: > 10 µM | inhibition [40]: inactive | bioavailability [41]: 0.05% | inhibition [42]: inactive | Cmax [43]: 29.5 ng/mL | IC50 [46]: > 10 µM | Papp at 20 µM [47]: 0.052 ×10⁻⁶ cm/s | IC50 [48]: > 3 µM
Structure (SMILES): C=CC(=O)NCc1cc(C(=O)NCc2c(SC)cc(C)[nH]c2=O)c(C)c(N(CC)C2CCOCC2)c1
IC50 [1]: 0.022 µM | IC50 [3]: > 3 µM | Activity [4]: Dose-Dependent Effect | Activity [8]: Tde | IC50 [9]: > 3 µM | IC50 [12]: > 3 µM | Activity [15]: inactive | inhibition [17]: Active | IC50 [19]: > 3 µM | inhibition [20]: Active | Activity [28]: Tde | Activity [29]: Active | inhibition [31]: Active | Activity [33]: Dose-Dependent Effect | inhibition [35]: Active | inhibition [36]: Active | inhibition [37]: Active | IC50 [44]: > 3 µM | Activity [45]: inactive
